In patent US20110224135A1 (priority 2008, published 2011):

B1: Conkunitzin-S1 (peptide)
chain: KDRPSLCDLPADSGSGTKAEKRIYYNSARKQCLRFDYTGQGGNENNFRRTYDCQRTCLYT
modifications: not checked

Key:
[1] = rat, in vivo
[2] = molecular target: T1, mouse Kv1.7 channel (mouse), Q17ST2; experiment: cell-based or functional assay
T1 chain: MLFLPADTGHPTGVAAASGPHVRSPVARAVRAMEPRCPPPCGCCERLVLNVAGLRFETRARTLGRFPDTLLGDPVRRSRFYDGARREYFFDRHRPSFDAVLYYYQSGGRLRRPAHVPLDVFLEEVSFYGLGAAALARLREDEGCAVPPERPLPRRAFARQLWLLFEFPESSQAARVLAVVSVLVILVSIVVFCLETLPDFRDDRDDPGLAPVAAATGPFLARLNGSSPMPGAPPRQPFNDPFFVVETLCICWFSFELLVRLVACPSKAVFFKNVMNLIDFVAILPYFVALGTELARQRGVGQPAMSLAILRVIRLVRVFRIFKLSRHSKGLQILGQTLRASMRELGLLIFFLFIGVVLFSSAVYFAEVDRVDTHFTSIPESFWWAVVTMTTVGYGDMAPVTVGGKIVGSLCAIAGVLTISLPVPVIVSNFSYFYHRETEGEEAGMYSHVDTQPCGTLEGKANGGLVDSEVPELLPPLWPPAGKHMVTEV

[3] = molecular target: T2, human Kv1.7 channel (human), Q96RP8; experiment: cell-based or functional assay
T2 chain: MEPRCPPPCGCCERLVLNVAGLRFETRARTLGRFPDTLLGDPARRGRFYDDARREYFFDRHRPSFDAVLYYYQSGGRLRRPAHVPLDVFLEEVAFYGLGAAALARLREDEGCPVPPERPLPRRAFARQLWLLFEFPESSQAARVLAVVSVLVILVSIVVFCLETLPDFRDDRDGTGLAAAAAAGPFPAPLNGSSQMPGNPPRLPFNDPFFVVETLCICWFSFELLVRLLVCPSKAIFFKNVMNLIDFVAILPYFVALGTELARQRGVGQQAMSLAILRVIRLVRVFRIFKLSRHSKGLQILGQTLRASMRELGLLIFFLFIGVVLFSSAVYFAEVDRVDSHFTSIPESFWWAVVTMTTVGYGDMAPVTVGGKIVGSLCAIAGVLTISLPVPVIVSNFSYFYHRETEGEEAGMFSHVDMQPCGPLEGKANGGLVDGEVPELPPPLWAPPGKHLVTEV

| Molecule | AUC calculated from the glucose profiles [1] | AUC of the insulin profiles [1] | Glucose-induced blood glucose increase [1] | IC50 of block of channel currents (two electrode voltage clamp, Xenopus oocytes) [2] | IC50 of block of channel currents (HEK-293 cells) [3] |
| --- | --- | --- | --- | --- | --- |
| COc1ccc(Cl)cc1C(=O)NCCc1ccc(S(=O)(=O)NC(=O)NC2CCCCC2)cc1 [glibenclamide] | 79 ± 7 g·min/L | 310 ± 35 ng·min/mL | reduction of the glucose-induced glucose increase |  |  |
| B1 |  |  |  | 122 nM | 445 nM |
